Measured values: paper PMC5572576 (The Lancet. Oncology, 2017)

System: patients with R/R AML
Conditions: in vivo

In the case of CCc1nc(C(N)=O)c(Nc2ccc(N3CCC(N4CCN(C)CC4)CC3)c(OC)c2)nc1NC1CCOCC1 [gilteritinib], the “Elevated blood phosphocreatine kinase, Grade 4” value (human) was 4 (1·6%) n (%), the “Epistaxis, Grade 1” value (human) was 36 (14%) n (%) and the “Epistaxis, Grade 2” value (human) was 9 (4%) n (%). The “Fall, Grade 1” value (human) was 17 (7%) n (%), the “Fall, Grade 2” value (human) was 10 (4%) n (%) and the “Fall, Grade 3” value (human) was 7 (3%) n (%). For the same compound, the “Fall, Grade 4” value (human) was 1 (0.4) n (%), the “Fatigue, Grade 1” value (human) was 31 (12%) n (%) and the “Fatigue, Grade 2” value (human) was 37 (15%) n (%). The “Fatigue, Grade 3” value (human) was 15 (6%) n (%), the “Febrile neutropenia, Grade 3” value (human) was 9 (36%) n (%) and the “Febrile neutropenia, Grade 4” value (human) was 7 (3%) n (%). The “Febrile neutropenia, Grade 5” value (human) was 1 (0·4%) n (%), the “Fungal pneumonia, Grade 3” value (human) was 11 (4%) n (%) and the “Gastrointestinal hemorrhage, Grade 3” value (human) was 4 (1·6%) n (%). For the same compound, the “Gastrointestinal hemorrhage, Grade 4” value (human) was 1 (0·4%) n (%), the “Grade 3/4 adverse event: anemia” value (human) was 24% and the “Grade 3/4 adverse event: febrile neutropenia” value (human) was 39%. The “Grade 3/4 adverse event: pneumonia” value (human) was 11%, the “Grade 3/4 adverse event: sepsis” value (human) was 11% and the “Grade 3/4 adverse event: thromobocytopenia” value (human) was 13%. The “Headache, Grade 1” value (human) was 22 (9%) n (%), the “Headache, Grade 2” value (human) was 6 (2%) n (%) and the “Hyperglycemia, Grade 3” value (human) was 8 (3%) n (%). For the same compound, the “Hyperglycemia, Grade 4” value (human) was 1 (0·4%) n (%), the “Hyperphosphatemia, Grade 3” value (human) was 14 (6%) n (%) and the “Hyperphosphatemia, Grade 4” value (human) was 3 (1·2%) n (%). The “Hypertension, Grade 1” value (human) was 6 (2%) n (%), the “Hypertension, Grade 2” value (human) was 11 (4%) n (%) and the “Hypertension, Grade 3” value (human) was 8 (3%) n (%). For the same compound, the “Hyperuricemia, Grade 3” value (human) was 5 (2%) n (%), the “Hyperuricemia, Grade 4” value (human) was 1 (0·4%) n (%) and the “Hypoalbuminemia, Grade 1” value (human) was 5 (2%) n (%). The “Hypoalbuminemia, Grade 2” value (human) was 22 (9%) n (%), the “Hypoalbuminemia, Grade 3” value (human) was 5 (2%) n (%) and the “Hypocalcaemia, Grade 1” value (human) was 13 (5%) n (%). For the same compound, the “Hypocalcaemia, Grade 2” value (human) was 15 (6%) n (%), the “Hypocalcaemia, Grade 3” value (human) was 14 (6%) n (%) and the “Hypocalcaemia, Grade 4” value (human) was 1 (0·4%) n (%). The “Hypokalaemia, Grade 1” value (human) was 22 (9%) n (%), the “Hypokalaemia, Grade 2” value (human) was 14 (6%) n (%) and the “Hypokalaemia, Grade 3” value (human) was 7 (3%) n (%). The “Hypokalaemia, Grade 4” value (human) was 2 (0·8%) n (%), the “Hypomagnesemia, Grade 1” value (human) was 29 (12%) n (%) and the “Hypomagnesemia, Grade 2” value (human) was 2 (0·8%) n (%). For the same compound, the “Hyponatraemia, Grade 1” value (human) was 18 (7%) n (%), the “Hyponatraemia, Grade 2” value (human) was 4 (1·6%) n (%) and the “Hyponatraemia, Grade 3” value (human) was 10 (4%) n (%). For the same compound, the “Hyponatraemia, Grade 4” value (human) was 2 (0·8%) n (%), the “Hypotension, Grade 1” value (human) was 7 (3%) n (%) and the “Hypotension, Grade 2” value (human) was 21 (8%) n (%). For the same compound, the “Hypotension, Grade 3” value (human) was 16 (6%) n (%), the “Hypotension, Grade 4” value (human) was 2 (0·8%) n (%) and the “Hypoxia, Grade 1” value (human) was 1 (0·4%) n (%). For the same compound, the “Hypoxia, Grade 2” value (human) was 8 (3%) n (%), the “Hypoxia, Grade 3” value (human) was 13 (5%) n (%) and the “Hypoxia, Grade 4” value (human) was 5(2%) n (%). For the same compound, the “Hypoxia, Grade 5” value (human) was 1 (0·4%) n (%), the “Increased transaminase, Grade 3” value (human) was 6 (2%) n (%) and the “Insomnia, Grade 1” value (human) was 14 (6%) n (%). The “Insomnia, Grade 2” value (human) was 10 (4%) n (%), the “Leukocytosis, Grade 3” value (human) was 9 (4%) n (%) and the “Leukocytosis, Grade 4” value (human) was 2 (0·8%) n (%). For the same compound, the “Leukopenia, Grade 3” value (human) was 2 (0·8%) n (%), the “Leukopenia, Grade 4” value (human) was 3 (1·2%) n (%) and the “Lung infection, Grade 3” value (human) was 7 (3%) n (%). The “Lung infection, Grade 5” value (human) was 1 (0·4%) n (%), the “Mucosal inflammation, Grade 3” value (human) was 5 (2%) n (%) and the “Mucosal inflammation, Grade 4” value (human) was 2 (0·8%) n (%). The “Multi-organ failure, Grade 5” value (human) was 7 (3%) n (%), the “Muscle weakness, Grade 3” value (human) was 5 (2%) n (%) and the “Nausea, Grade 1” value (human) was 30 (12%) n (%). The “Nausea, Grade 2” value (human) was 19 (8%) n (%), the “Nausea, Grade 3” value (human) was 5 (2%) n (%) and the “Neutropenia, Grade 2” value (human) was 2 (0·8%) n (%). For the same compound, the “Neutropenia, Grade 3” value (human) was 2 (0·8%) n (%), the “Neutropenia, Grade 4” value (human) was 18 (7%) n (%) and the “Neutropenia, Grade 5” value (human) was 1 (0·4%) n (%). The “Patients requiring dose reductions” value (human) was 10%, the “Patients with maximum post-baseline QTcF interval >500 ms” value (human) was 4% and the “Pleural effusion, Grade 3” value (human) was 5 (2%) n (%). The “Pneumonia, Grade 1” value (human) was 1 (0·4%) n (%), the “Pneumonia, Grade 2” value (human) was 3 (1·2%) n (%) and the “Pneumonia, Grade 3” value (human) was 26 (10%) n (%). The “Pneumonia, Grade 4” value (human) was 1 (0·4%) n (%), the “Pneumonia, Grade 5” value (human) was 4 (1·6%) n (%) and the “Progressive AML, Grade 3” value (human) was 2 (0.8) n (%). The “Progressive AML, Grade 5” value (human) was 41 (16%) n (%), the “Pyrexia, Grade 1” value (human) was 36 (14%) n (%) and the “Pyrexia, Grade 2” value (human) was 16 (6%) n (%). For the same compound, the “Pyrexia, Grade 3” value (human) was 13 (5%) n (%), the “QT Prolongation, Grade 3” value (human) was 8 (3%) n (%) and the “Respiratory failure, Grade 3” value (human) was 2 (0·8%) n (%). For the same compound, the “Respiratory failure, Grade 4” value (human) was 5 (2%) n (%), the “Respiratory failure, Grade 5” value (human) was 7 (3%) n (%) and the “Sepsis, Grade 2” value (human) was 1 (0·4%) n (%). The “Sepsis, Grade 3” value (human) was 5 (2%) n (%), the “Sepsis, Grade 4” value (human) was 23 (9%) n (%) and the “Sepsis, Grade 5” value (human) was 7 (3%) n (%). For the same compound, the “Septic shock, Grade 4” value (human) was 2 (0·8%) n (%), the “Septic shock, Grade 5” value (human) was 4 (1·6%) n (%) and the “Serious AE considered related to treatment: acute renal failure” value (human) was 2%. The “Serious AE considered related to treatment: febrile neutropenia” value (human) was 2%, the “Serious AE considered related to treatment: pyrexia” value (human) was 1% and the “Serious AE considered related to treatment: sepsis” value (human) was 1%. The “Serious adverse event: acute renal failure” value (human) was 10%, the “Serious adverse event: bacteremia” value (human) was 6% and the “Serious adverse event: febrile neutropenia” value (human) was 31%. For the same compound, the “Serious adverse event: pneumonia” value (human) was 11%, the “Serious adverse event: progressive disease” value (human) was 17% and the “Serious adverse event: pyrexia” value (human) was 8%. The “Serious adverse event: respiratory failure” value (human) was 6%, the “Serious adverse event: sepsis” value (human) was 14% and the “Skin infection, Grade 3” value (human) was 5 (2%) n (%). For the same compound, the “Stomatitis, Grade 1” value (human) was 12 (5%) n (%), the “Stomatitis, Grade 2” value (human) was 10 (4%) n (%) and the “Subdural hematoma, Grade 3” value (human) was 4 (1·6%) n (%). For the same compound, the “Subdural hematoma, Grade 4” value (human) was 2 (0·8%) n (%), the “Syncope, Grade 3” value (human) was 13 (5%) n (%) and the “Thrombocytopenia, Grade 1” value (human) was 1 (0·4%) n (%). For the same compound, the “Thrombocytopenia, Grade 2” value (human) was 5 (2%) n (%), the “Thrombocytopenia, Grade 3” value (human) was 2 (0·8%) n (%) and the “Thrombocytopenia, Grade 4” value (human) was 31 (12%) n (%). For the same compound, the “Treatment-related mortality from neutropenia” value (human) was < 1%, the “Vomiting, Grade 1” value (human) was 35 (14%) n (%) and the “Vomiting, Grade 2” value (human) was 7 (3%) n (%). The “Vomiting, Grade 3” value (human) was 5 (2%) n (%) and the “Deaths considered possibly/probably related to treatment” value was “Seven”.
